Source: US20100160391A1, “Substituted Aminopyridines as Fluorescent Reporters for Amide Hydrolases” (priority 2006, published 2010)
Like-named read-outs stand apart in the source and are kept apart here. Marks after values point to notes of the source that are not given here. Values belong to the molecule of their own block, whether it stands above or below them.

Key:
[1] = Molar extinction coefficient of fluorescent reporters; type: physicochemical; conditions: H2O containing 1% ethanol, 290 nm, 30° C., 10-50 μM
Procedure: Molar extinction coefficient. According to Beer's law, Aλ=ε*C*L, where Aλ is the absorbance at wavelength (λ nm); ε is called the molar extinction coefficient; L is the width of the sample cuvette; and C is the concentration of the solute. In this example, a series of concentrations falling between 10 and 50 μM (final concentration) for each fluorescent reporter was used for determination of the molar extinction coefficient. Assays were performed in a quartz cuvette (1 cm optical passage). 10 μl of a stock solution of a reporter in ethanol (1, 2, 3, 4, or 5 mM) was added to 990 μl H2O. The resulting mixture was degassed by sonication with ultrasonic cleaner Model 750 (VWR International; Wester, Pa.) for 10 seconds at a power level of 9. Measurements were performed with a Spectra Max M2 spectrophotometer (Molecular Devices; Sunnyvale, Calif.) at a wavelength of 290 nm. A slope (or extinction coefficient) was obtained by using an average absorbance of triplicate samples.

[2] = Maximal excitation and emission wavelengths; type: physicochemical; conditions: 50 μM in 0.1 M phosphate buffer, 30° C.; SD ±2 nm
Procedure: Maximal excitation and emission wavelengths. A stock solution in ethanol of each compound (10 μl, 5 mM) was added to 990 μl of sodium phosphate buffer (0.1 M, pH 8.0, final substrate concentration 50 μM) in a 1-cm quartz cuvette. The quartz cuvette was scanned from 200 to 500 nm for absorption spectra with a Spectra Max M2 spectrophotometer. Maximal excitation and emission wavelengths were obtained from scanning from 250 to 600 nm and 360 to 600 nm by a 2 nm interval at 30° C., respectively.

[3] = 3-aminopyridine in water, from Weisstuch et al.; cited from earlier work
[4] = cited from earlier work; for ØF, fluorescence quantum yield: in water, literature value
amidases, human liver S9 = test: Specific activity, human liver S9; type: biochemical; conditions: pH 8.0, 37° C.; NM = not measurable at the same protein concentration as other substrates
Procedure: Comparison of the lowest detection limits of protein concentration of FAAH toward colorimetric and fluorescent substrates. In general, all assays were performed in 96-well styrene flat-bottom microtiter plates with a Spectra Max M2 spectrophotometer at 37° C. for […]. The total volume of each well was 201 μl consisting of 0.1 M sodium phosphate buffer (pH 8.0) (190 μl) containing 1% glycerol and 0.1% Triton-X 100, stock or diluted protein solution (10 μl), and the substrate solution (1 μl) in ethanol (final concentration 200 μM for 10, 11, 13 or 14) or in DMSO (final concentration 25 μM for 12, 15, or 16; 50 μM for 17). The lowest detection limits of microsomal fatty acid amide hydrolase (FAAH) by substrates were determined by the fact that the signal at 10 min after kinetic measurements are equal to or over three times the noise or basal line at 0 min. Colorimetric substrate (16) assays were performed in clear 96-well microtititer plates using an absorbance wavelength at 382 nm. The fluorescent substrates containing 5-amino-2-methoxypyridine (e.g., 10, 13) were measured at an excitation wavelength (302 nm), emission wavelength (396 nm), and auto cutoff wavelength (325 nm). […]

[5] = test system: amidases, human liver microsomes; test: Specific activity, human liver microsomes; type: biochemical; conditions: for Specific activity, Human liver microsomes: pH 8.0, 37° C., NM = not measurable at the same protein concentration as other substrates
Procedure: (§1) Comparison of the lowest detection limits of protein concentration of FAAH toward colorimetric and fluorescent substrates. In general, all assays were performed in 96-well styrene flat-bottom microtiter plates with a Spectra Max M2 spectrophotometer at 37° C. for […]. The total volume of each well was 201 μl consisting of 0.1 M sodium phosphate buffer (pH 8.0) (190 μl) containing 1% glycerol and 0.1% Triton-X 100, stock or diluted protein solution (10 μl), and the substrate solution (1 μl) in ethanol (final concentration 200 μM for 10, 11, 13 or 14) or in DMSO (final concentration 25 μM for 12, 15, or 16; 50 μM for 17). The lowest detection limits of microsomal fatty acid amide hydrolase (FAAH) by substrates were determined by the fact that the signal at 10 min after kinetic measurements are equal to or over three times the noise or basal line at 0 min. Colorimetric substrate (16) assays were performed in clear 96-well microtititer plates using an absorbance wavelength at 382 nm. The fluorescent substrates containing 5-amino-2-methoxypyridine (e.g., 10, 13) were measured at an excitation wavelength (302 nm), emission wavelength (396 nm), and auto cutoff wavelength (325 nm). Similarly, the fluorescent substrates containing 5-amino-2-methoxy-6-methylpyridine (e.g., 11, 14, and 17) were measured at an excitation wavelength (304 nm), emission wavelength (392 nm), and an auto cutoff wavelength of 325 nm. In addition, an excitation wavelength (366 nm), emission wavelength (496 nm), and auto cutoff wavelength (495 nm) were used for the substrates (e.g., 12 and 15) containing 7-amino-4-trifluoromethyl coumarin.
Specific activity determination. The assays for specific activities were performed as described above for the sensitivity assay. The specific activity presented is based on the following: 1) the signal after a 10 min enzymatic reaction was at least 3 fold the baseline signal at 0 min, and 2) the amount of hydrolyzed substrate during a 10 min period was less than 10% of the total amount of the substrate added. To correct for protein-induced fluorescence quenching, a standard curve of 5-amino-2-methoxypyridine (6) or 5-amino-2-methoxy-6-methylpyridine (8) was constructed in the presence of the same protein concentration used for the assay of that enzyme.

[6] = test system: amidases, microsomes from High Five cells; test: Specific activity, microsomes from High Five cells; conditions: pH 8.0, 37° C.; NM = not measurable at the same protein concentration as other substrates
Procedure: Preparation of recombinant human FAAH. Transgenic expression of the human FAAH in a baculovirus system was performed by following the method described in Nishi et al., Arch. […] The cDNA encoding human FAAH (GenBank Accession No. NM—001441) was amplified by PCR using a human liver cDNA library (Invitrogen; Carlsbad, Calif.) as a template. The primer pair was 5′-[sequence]-3′ and 5′-[sequence]-3′. BglII and EcoRI endonuclease sites (underlined) were incorporated just upstream of the start codon and downstream of the stop codon of the coding sequence of FAAH, respectively. The PCR products were cloned into a pCR2.1 vector (Invitrogen) and the nucleotide sequence was verified by DNA sequencing. The cDNA fragments were then excised and directionally ligated to the BglII and EcoRI sites of the baculovirus transfer vector pAcUW21 (Lopez-Ferber et al., Baculovirus transfer vectors, in “Baculovirus Expression Protocols,” Richardson (Ed.), pp 25-63, Humana Press, Totowa, N.J., 1995). Recombinant baculoviruses harboring the human FAAH gene, Ac-hFAAH, were generated by co-transfection of Spodoptera frugiperda-derived Sf21 cells with the recombinant transfer vector plasmid and Bsu36I-cleaved BacPAK6 viral DNA (Clontech Laboratories; Mountain View, Calif.) as described in O'Reilly et al., Baculovirus Expression Vectors: A Laboratory Manual, Oxford University Press, New York, 1992. Trichoplusia ni-derived High Five cells (1×10^6 cells/ml) were inoculated with a high titer of Ac-hFAAH. At 72 hours post-infection, the infected cells were harvested by centrifugation at 2,000×g for 20 min at 4° C. and suspended in 50 mM Tris-HCl (pH 8.0) containing 150 mM NaCl, 1 mM EDTA, 1 μM pepstatin, 100 μM leupeptin, and 0.1 mg/ml aprotinin. The cell suspension was then homogenized using a Polytron homogenizer and centrifuged at 10,000×g for 20 min at 4° C. […]
Comparison of the lowest detection limits of protein concentration of FAAH toward colorimetric and fluorescent substrates. […] The lowest detection limits of microsomal fatty acid amide hydrolase (FAAH) by substrates were determined by the fact that the signal at 10 min after kinetic measurements are equal to or over three times the noise or basal line at 0 min. Colorimetric substrate (16) assays were performed in clear 96-well microtititer plates using an absorbance wavelength at 382 nm. The fluorescent substrates containing 5-amino-2-methoxypyridine (e.g., 10, 13) were measured at an excitation wavelength (302 nm), emission wavelength (396 nm), and auto cutoff wavelength (325 nm). Similarly, the fluorescent substrates containing 5-amino-2-methoxy-6-methylpyridine (e.g., 11, 14, and 17) were measured at an excitation wavelength (304 nm), emission wavelength (392 nm), and an auto cutoff wavelength of 325 nm. […]

[7] = Comparison of aqueous solubility of substrates (absorbance at 800 nm); type: physicochemical; conditions: 0.1 M phosphate buffer (pH 8.0), 1% ethanol, 37° C.
Procedure: Comparison of aqueous solubility of substrates. The aqueous solubility of the aminopyridine derivatives (e.g., 13, 14) and the 7-aminocoumarin derivative (e.g., 15) was determined in clear 96-well styrene flat-bottom microtiter plates with a Spectra Max M2 spectrophotometer. Different concentrations of the substrates (13, 14 and 15; final concentration: 0.39, 0.78, 1.56, 3.13, 6.25, 12.5, 25, 50, 100, or 200 μM) in 200 μl 0.1 M sodium phosphate buffer (1% ethanol; pH 8.0) were used and the absorbance was recorded at a wavelength of 800 nm at 37° C. The measurements were performed in three replicates for each concentration.

[8] = biological target: T1, human FAAH, microsomes from FAAH cells (Homo sapiens, UniProt O00519); test: Specific activity, microsomes from FAAH cells; type: biochemical
T1 construct: made in house; host or cells: Trichoplusia ni High Five cells infected with recombinant baculovirus Ac-hFAAH; microsomal fraction
T1 sequence (O00519 1-579): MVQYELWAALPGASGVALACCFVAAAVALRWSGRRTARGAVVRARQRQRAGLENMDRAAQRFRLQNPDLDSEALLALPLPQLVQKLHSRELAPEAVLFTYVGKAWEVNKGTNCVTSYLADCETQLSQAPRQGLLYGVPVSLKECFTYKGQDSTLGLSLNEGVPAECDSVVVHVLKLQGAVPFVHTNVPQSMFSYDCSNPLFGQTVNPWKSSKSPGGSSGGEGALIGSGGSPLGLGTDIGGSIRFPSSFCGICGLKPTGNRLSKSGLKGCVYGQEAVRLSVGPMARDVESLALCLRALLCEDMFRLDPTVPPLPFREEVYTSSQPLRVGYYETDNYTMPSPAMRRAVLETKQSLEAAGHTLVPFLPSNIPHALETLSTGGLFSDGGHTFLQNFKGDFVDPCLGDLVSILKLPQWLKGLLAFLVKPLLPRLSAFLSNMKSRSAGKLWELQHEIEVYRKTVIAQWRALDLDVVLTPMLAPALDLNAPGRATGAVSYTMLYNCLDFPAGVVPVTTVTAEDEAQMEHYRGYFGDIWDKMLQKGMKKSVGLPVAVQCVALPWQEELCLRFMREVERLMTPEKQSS
Procedure: (§2) Preparation of recombinant human FAAH. Transgenic expression of the human FAAH in a baculovirus system was performed by following the method described in Nishi et al., Arch. Biochem. Biophys., 445:115-123 (2006). The cDNA encoding human FAAH (GenBank Accession No. NM_001441) was amplified by PCR using a human liver cDNA library (Invitrogen; Carlsbad, Calif.) as a template. The primer pair was 5′-[…]-3′ and 5′-[…]-3′. BglII and EcoRI endonuclease sites (underlined) were incorporated just upstream of the start codon and downstream of the stop codon of the coding sequence of FAAH, respectively. The PCR products were cloned into a pCR2.1 vector (Invitrogen) and the nucleotide sequence was verified by DNA sequencing. The cDNA fragments were then excised and directionally ligated to the BglII and EcoRI sites of the baculovirus transfer vector pAcUW21 (Lopez-Ferber et al., Baculovirus transfer vectors, in “Baculovirus Expression Protocols,” Richardson (Ed.), pp 25-63, Humana Press, Totowa, N.J., 1995). Recombinant baculoviruses harboring the human FAAH gene, Ac-hFAAH, were generated by co-transfection of Spodoptera frugiperda-derived Sf21 cells with the recombinant transfer vector plasmid and Bsu36I-cleaved BacPAK6 viral DNA (Clontech Laboratories; Mountain View, Calif.) as described in O'Reilly et al., Baculovirus Expression Vectors: A Laboratory Manual, Oxford University Press, New York, 1992. Trichoplusia ni-derived High Five cells (1×10^6 cells/ml) were inoculated with a high titer of Ac-hFAAH. At 72 hours post-infection, the infected cells were harvested by centrifugation at 2,000×g for 20 min at 4° C. and suspended in 50 mM Tris-HCl (pH 8.0) containing 150 mM NaCl, 1 mM EDTA, 1 μM pepstatin, 100 μM leupeptin, and 0.1 mg/ml aprotinin. The cell suspension was then homogenized using a Polytron homogenizer and centrifuged at 10,000×g for 20 min at 4° C. The microsomal fraction was collected by ultracentrifugation of the supernatant at 100,000×g for 60 min at 4° C. The pellet was resuspended in 20 mM Tris-HCl (pH 8.0) containing 10% (w/v) glycerol and 1% (w/v) Triton-X 100 and stored at −80° C. until use.
as §1
Specific activity determination. The assays for specific activities were performed as described above for the sensitivity assay. […]

[9] = biological target: T2, microsomal fatty acid amide hydrolase (FAAH) (Homo sapiens, UniProt O00519); test: Lowest detection limits of microsomal FAAH toward colorimetric and fluorescent substrates; type: biochemical
T2 construct: made in house; host or cells: Trichoplusia ni High Five cells infected with recombinant baculovirus Ac-hFAAH; microsomal fraction
T2 sequence (O00519 1-579): T1 sequence (O00519 1-579)
Procedure: as §2, §1

FAAH [10] = conditions: from Ramarao et al. (AAMCA), De Bank et al. (oleamide); cited from earlier work
FAAH [11] = test: FAAH kinetic data of literature substrates; type: biochemical; conditions: Vmax/Km of substrate over that of oleamide (5.5 × 10^−2)

SMILES: Nc1cccnc1 [Compound 1, 3-aminopyridine]
- εmax, molar extinction coefficient [1]: 2890 M⁻¹ cm⁻¹
- Em, maximal emission wavelength [2]: 378 nm
- Ex, maximal excitation wavelength [2]: 286 nm
- εmax, molar extinction coefficient [3]: 2800 M⁻¹ cm⁻¹
- quantum yield ([4]; in 0.1 NH2SO4, Rusakowicz et al.): 1.07
- quantum yield ([4]; in 1 N NaOH, Rusakowicz et al.): 0.03
- ØF, fluorescence quantum yield [4]: 0.32^d
- ØF, fluorescence quantum yield ([4]; listed as 3-aminopyridine): 0.32

SMILES: CCCCCCCC(=O)Nc1ccc(OC)nc1C [Compound 14, N-(6-methoxy-2-methylpyridin-3-yl) octanamide]
- Specific activity, Human liver S9 (amidases, human liver S9): 0.42 ± 0.01 nmol/min/mg protein
- preference of human liver microsomes for substrate (14) over (13) ([5]; Table 4): at least 15 times
- Specific activity, Human liver microsomes [5]: 6.90 ± 0.25 nmol/min/mg protein
- Specific activity, Microsomes from High Five cells [6]: 591 ± 18.4 pmol/min/mg protein
- aqueous solubility compared with coumarin substrate (15) [7]: much higher solubility
- enhancement of activity, microsomes from FAAH-expressing cells compared with High Five cells [8]: 31 times
- Specific activity, Microsomes from FAAH cells ([8]; pH 8.0, 37° C., NM = not measurable at the same protein concentration as other substrates): 19.0 ± 0.5 nmol/min/mg protein
- melting point: 67.4 to 68.2 °C
- base line, Average ([9]; 0 min, protein 0.11 (13), 0.67 (14), 100 (15), 0.5 (17) μg/well, 200 μM (13),(14), 25 μM (15), 50 μM (17)): 194 RFU
- signal, Average ([9]; 10 min, protein 0.11 (13), 0.67 (14), 100 (15), 0.5 (17) μg/well, 200 μM (13),(14), 25 μM (15), 50 μM (17)): 728* RFU
- Protein, lowest detection limit of microsomal FAAH (signal at 10 min ≥ three times base line) ([9]; pH 8.0, 37° C., 200 μM (13), (14), 50 μM (17)): 0.67 μg/200 μ′
- lowest detection limit of protein ([9]; signal at 10 min equal to three times base line): 3.3 μg protein/ml

SMILES: CCCCCC=CCC=CCC=CCC=CCCCC(=O)Nc1ccc2c(C)cc(=O)oc2c1 [AAMCA, arachidonyl 7-amino-4-methylcoumarin amide]
- Km (FAAH [10]): 0.48 µM
- Vmax (FAAH [10]): 0.058 nmol/min/mg
- Selectivity ratio (FAAH [11]): 2.2

- Specific activity, Human liver S9 (amidases, human liver S9): 0.18 ± 0.02 nmol/min/mg protein
- Specific activity, Human liver microsomes [5]: 0.66 ± 0.06 nmol/min/mg protein
- melting point: 109.3 to 111.4 °C
SMILES: CC(=O)Nc1ccc2c(C(F)(F)F)cc(=O)oc2c1 [Compound 12, N-(4-(trifluoromethyl)-2-oxo-2H-chromen-7-yl) acetamide]

SMILES: CCCCCCCC/C=C\CCCCCCCC(N)=O [Oleamide, oleamide]
- Km (FAAH [10]): 104 µM
- Vmax (FAAH [10]): 5.7 nmol/min/mg
- Selectivity ratio (FAAH [11]): 1.0
